A short description of series [1]: In vivo p.o. dosing (Protocols 1 and 2): plasma and colon concentrations. On the set-up: species or system C57BL/6 mice. The note with it: mice, 25 mg/kg p.o. in 20% HPβCD; for Plasma Concentration After p.o. Dosing, Time = 0.5 h, Mean: 0.5 h post dose; for Plasma Concentration After p.o. Dosing, Time = 2 h, Mean: 2 h post dose; for Plasma Concentration After p.o. Dosing, Time = 4 h, Mean: 4 h post dose; for Colon Concentration After p.o. Dosing, Time = 4 h, Mean: colon 4 h post dose. The procedure:
These protocols are described below under the heading In vivo Studies.
(§1) Three non-fasted female C57BL/6 mice were orally administered test compound at a dose of 25 mg/kg p.o. as a solution in 20% hydroxypropyl-beta-cyclodextrin (HPβCD) at a dose volume of 5 mL/kg. Blood samples were collected at 0.5, 2, and 4 h post dose via retro-orbital bleed or venipuncture of the dorsal metatarsal vein. Blood samples were collected into tubes containing anticoagulant (Heparin-Na) and placed on wet ice. The plasma fraction was separated by centrifugation and frozen at −20° C. for up to 4 h and −80° C. after 4 h unless analyzed shortly after sample collection. Colon samples were collected at 4 h post dose. From the beginning of the cecum, a 4-6 cm sample of the colon was dissected, cut open on the longitudinal axis, and the solid contents removed by flushing with 2 mL of saline. The colon was further washed by putting it in 5 mL of saline and shaken for 5 seconds. The colon sample was then patted dry, weighed, and homogenized as 1 part tissue (g) to 4 parts HPLC grade water (mL). Concentrations of the compound in plasma and colon homogenate were determined using a qualified liquid chromatography-triple quadrupole mass spectrometry (LC-MS/MS) method.
as §1, with “HPβCD” for “hydroxypropyl-beta-cyclodextrin (HPβCD)”, “or” for “or venipuncture of the”, “2 cm below” for “the beginning of”, “4” for “4-6”

The subject of series [2] is MDCK-MDR1 cell line. The series is described as follows: MDCK-MDR1 permeability assay. The class given is in vitro ADME. The note with it: apical-to-basolateral, with P-gp inhibitor elacridar (2 μM), 60 min. Here is the method:
Permeability measurements were conducted according to the Cyprotex protocol using the MDCK-MDR1 cell line obtained from the NIH (Rockville, Md., USA). […] The cells in this assay form a cohesive sheet of a single cell layer filing the surface area of the culture dish, also known as a confluent monolayer, and on day four the test compound was added to the apical side of the membrane and the transport of the compound across the monolayer was monitored over a time period of 60 min.
Test compounds were dissolved in DMSO at a concentration of 10 mM. The dosing solutions were prepared by diluting test compound with assay buffer (Hanks Balanced Salt Solution), pH 7.4, at a final concentration of 5 μM. For assessment of apical to basolateral (“A-B”) permeability, buffer was removed from the apical compartment and replaced with test compound dosing solution with or without the permeability glycoprotein (“PgP”, “P-gP”, “Pgp” or “P-gp”) inhibitor elacridar (2 μM). For assessment of basolateral to apical (“B-A”) permeability, buffer was removed from the companion plate and replaced with test compound dosing solution. Incubations were carried out in duplicate at 37° C. in an atmosphere of 5% CO2 with a relative humidity of 95%. Each assay included the reference markers propranolol (high permeability) and prazosin (PgP substrate). After incubation for 60 minutes, apical and basolateral samples were diluted and test compounds quantified by LC/MS/MS using an 8-point calibration in the range 0.0039 to 3 μM with appropriate dilution of the samples (receiver dilution factor=1; donor and Co dilution factor=10). The permeability coefficient (Papp) for each compound was calculated from the following equation: Papp=(dQ/dt)/(C0×S), where dQ/dt is the rate of permeation of the drug across the cells, Co is the donor compartment concentration at time zero, and S is the area of the cell monolayer.
Papp(A-B) gives an indication of permeation extent across the cells in this assay, which is envisaged to model the transcellular transport across Pgp-expressing cells, such as Pgp-expressing gastrointestinal tract cells.

Series [3] in a line: In vivo intracolonic (i.c.) dosing (Protocol 3): plasma and colon concentrations. Set-up: species or system C57BL/6 mice. The note with it: mice, 5 mg/kg intracolonic in 20% HPβCD; for Plasma Concentration After i.c. Dosing, Time = 2 h, Mean: 2 h post dose; for Plasma Concentration After i.c. Dosing, Time = 4 h, Mean: 4 h post dose. From the text:
Plasma and colon concentration results were obtained by following Protocol 1 using venipuncture of dorsal metatarsal vein bleed for Compounds (B), (C), and Examples 6 and 11. Plasma and colon concentration results were obtained by following Protocol 2 using retro-orbital bleed for Compounds (A), and Examples 1, and 3-5 and Protocol 2 using venipuncture of the dorsal metatarsal vein for Examples 2, 7-10, and 12. Plasma and colon concentration results were obtained by following Protocol 3 for Examples 1, 3 and 4. These protocols are described below under the heading In vivo Studies.
Intracolonic (IC) dose group: Following anesthesia with isoflurane by inhalation, three non-fasted female C57BL/6 mice were administered the compound intracolonically through a small incision in the abdominal wall using a syringe and needle at a dose of 5 mg/kg as a solution in 20% HPβCD at a dose volume of 1 mL/kg. Blood samples were collected at 0.5, 2, and 4 h post dose via retro-orbital bleed. Blood samples were collected into tubes containing anticoagulant (Heparin-Na) and placed on wet ice. The plasma fraction was separated by centrifugation and frozen at −20° C. for up to 4 h and −80° C. after 4 h unless analyzed shortly after sample collection. Colon samples were collected at 4 h post dose. From 2 cm below the cecum, a 4-cm sample of the colon was dissected, cut open on the longitudinal axis, and the solid contents removed by flushing with 2 mL of saline. The colon was further washed by putting it in 5 mL of saline and shaken for 5 seconds. The colon sample was then patted dry, weighed, and homogenized as 1 part tissue (g) to 4 parts HPLC grade water (mL). Concentrations of the compound in plasma and colon homogenate were determined using a qualified liquid chromatography-triple quadrupole mass spectrometry (LC-MS/MS) method. This protocol was used to evaluate IC dosing of the following test compounds: Examples 1, 3, and 4.

The structures appear in SMILES notation. “And” between values parts separate entries of the source, which are not always exact repeats. Equal entries are not always repeated. Marks after values point to notes of the source that are not given here.

On to `N#CC[C@H]1CC[C@H](n2c(CO)nc3cnc4[nH]ccc4c32)CC1` [B], for which, in series [1], the “Plasma Concentration After p.o. Dosing, Time = 0.5 h, Mean” value turned out to be 352.7 ng/mL; the “Plasma Concentration After p.o. Dosing, Time = 2 h, Mean” value is recorded as 66.3 ng/mL; the “Plasma Concentration After p.o. Dosing, Time = 4 h, Mean” value worked out at 11.3 ng/mL; the “Colon Concentration After p.o. Dosing, Time = 4 h, Mean” value (from here on “Colon Concentration After p.o. Dosing”) stood at 6076.7 ng/g.

As to `N#CC[C@H]1CC[C@H](n2c(CC(=O)Nc3cc[nH]n3)nc3cnc4[nH]ccc4c32)CC1` [Ex. 11, 2-(1-((1r,4r)-4-(Cyanomethyl)cyclohexyl)-1,6-dihydroimidazo[4,5-d]pyrrolo[2,3-b]pyridin-2-yl)-N-(1H-pyrazol-3-yl)acetamide], in series [1], the “Plasma Concentration After p.o. Dosing, Time = 2 h, Mean” value is listed as “^∧” and the “Plasma Concentration After p.o. Dosing, Time = 4 h, Mean” value is listed as “^∧”. The “MDCK-MDR1 P^eapp(A-B) @ 5 μM” value in series [2] was 0.8 10^−6 cm/sec.

As to `N#CCC1CCC(n2c(-c3c[nH]cn3)nc3cnc4[nH]ccc4c32)CC1` (stereo not shown) [Ex. 2, 2-((1r,4r)-4-(2-(1H-Imidazol-4-yl)imidazo[4,5-d]pyrrolo[2,3-b]pyridin-1(6H)-yl)cyclohexyl)acetonitrile], the “MDCK-MDR1 P^eapp(A-B) @ 5 μM” value in series [2] was 1.6 10^−6 cm/sec.

In the case of `C[C@@H](O)c1nc2cnc3[nH]ccc3c2n1[C@H]1CC[C@H](CC#N)CC1` [C], in series [1], the “Plasma Concentration After p.o. Dosing, Time = 0.5 h, Mean” value is given as 547.0 ng/mL; the “Plasma Concentration After p.o. Dosing, Time = 2 h, Mean” value is 130.2 ng/mL; the “Plasma Concentration After p.o. Dosing, Time = 4 h, Mean” value was 16.7 ng/mL; the “Colon Concentration After p.o. Dosing” value worked out at 7776.7 ng/g.

Consider `CC(C)(O)CNC(=O)Cc1nc2cnc3[nH]ccc3c2n1[C@H]1CC[C@H](CC#N)CC1` [Ex. 1, 2-(1-((1r,4r)-4-(Cyanomethyl)cyclohexyl)-1,6-dihydroimidazo[4,5-d]pyrrolo[2,3-b]pyridin-2-yl)-N-(2-hydroxy-2-methylpropyl)acetamide], for which, in series [3], the “Plasma Concentration After i.c. Dosing, Time = 2 h, Mean” value was “^∧” and the “Plasma Concentration After i.c. Dosing, Time = 4 h, Mean” value was “^∧”.

`N#CC[C@H]1CC[C@H](n2c(CC(=O)NCC3(O)CCC3)nc3cnc4[nH]ccc4c32)CC1` [Ex. 8, 2-(1-((1r,4r)-4-(Cyanomethyl)cyclohexyl)-1,6-dihydroimidazo[4,5-d]pyrrolo[2,3-b]pyridin-2-yl)-N-((1-hydroxycyclobutyl)methyl)acetamide]: in series [2], the “MDCK-MDR1 P^eapp(A-B) @ 5 μM” value is 0.5 10^−6 cm/sec.

On to `N#CC[C@H]1CC[C@H](n2c(CC(=O)NCC3CCOCC3)nc3cnc4[nH]ccc4c32)CC1` [Ex. 6, 2-(1-((1r,4r)-4-(Cyanomethyl)cyclohexyl)-1,6-dihydroimidazo[4,5-d]pyrrolo[2,3-b]pyridin-2-yl)-N-((tetrahydro-2H-pyran-4-yl)methyl)acetamide], for which the “Plasma Concentration After p.o. Dosing, Time = 4 h, Mean” value in series [1] is 1.7^# ng/mL. Besides, in series [2], the “MDCK-MDR1 P^eapp(A-B) @ 5 μM” value is 0.9 10^−6 cm/sec and 1.1 10^−6 cm/sec.

For `N#CCCNC(=O)Cc1nc2cnc3[nH]ccc3c2n1[C@H]1CC[C@H](CC#N)CC1` [Ex. 4, N-(2-Cyanoethyl)-2-(1-((1r,4r)-4-(cyanomethyl)cyclohexyl)-1,6-dihydroimidazo[4,5-d]pyrrolo[2,3-b]pyridin-2-yl)acetamide], the “Plasma Concentration After i.c. Dosing, Time = 4 h, Mean” value in series [3] was “^∧”. In series [2], the “MDCK-MDR1 P^eapp(A-B) @ 5 μM” value is on record as 0.5 10^−6 cm/sec.

Take `N#CCC12CCC(NC(=O)Cc3nc4cnc5[nH]ccc5c4n3[C@H]3CC[C@H](CC#N)CC3)(CC1)C2` [Ex. 10, N-(4-(Cyanomethyl)bicyclo[2.2.1]heptan-1-yl)-2-(1-((1r,4r)-4-(cyanomethyl)cyclohexyl)-1,6-dihydroimidazo[4,5-d]pyrrolo[2,3-b]pyridin-2-yl)acetamide]: in series [2], the “MDCK-MDR1 P^eapp(A-B) @ 5 μM” value is reported as 1.1 10^−6 cm/sec.

Turning to `N#CC[C@H]1CC[C@H](n2c(CC(=O)NC3CCOCC3)nc3cnc4[nH]ccc4c32)CC1` [Ex. 5, 2-(1-((1r,4r)-4-(cyanomethyl)cyclohexyl)-1,6-dihydroimidazo[4,5-d]pyrrolo[2,3-b]pyridin-2-yl)-N-(tetrahydro-2H-pyran-4-yl)acetamide], in series [2], the “MDCK-MDR1 P^eapp(A-B) @ 5 μM” value was 0.7 10^−6 cm/sec and 0.5 10^−6 cm/sec.

On to `Cc1nc2cnc3[nH]ccc3c2n1[C@H]1CC[C@H](CC#N)CC1` [A], for which, in series [1], the “Plasma Concentration After p.o. Dosing, Time = 0.5 h, Mean” value was 347.0 ng/mL; the “Plasma Concentration After p.o. Dosing, Time = 2 h, Mean” value worked out at 69.1 ng/mL; the “Plasma Concentration After p.o. Dosing, Time = 4 h, Mean” value stood at 84.5 ng/mL; the “Colon Concentration After p.o. Dosing” value was 895.0 ng/g.

In the case of `Cn1cc(NC(=O)Cc2nc3cnc4[nH]ccc4c3n2[C@H]2CC[C@H](CC#N)CC2)cn1` [Ex. 9, 2-(1-((1r,4r)-4-(Cyanomethyl)cyclohexyl)-1,6-dihydroimidazo[4,5-d]pyrrolo[2,3-b]pyridin-2-yl)-N-(1-methyl-1H-pyrazol-4-yl)acetamide], the “MDCK-MDR1 P^eapp(A-B) @ 5 μM” value in series [2] was 0.6 10^−6 cm/sec.

Take `CC(C)(C#N)CNC(=O)Cc1nc2cnc3[nH]ccc3c2n1[C@H]1CC[C@H](CC#N)CC1` [Ex. 7, N-(2-Cyano-2-methylpropyl)-2-(1-((1r,4r)-4-(cyanomethyl)cyclohexyl)-1,6-dihydroimidazo[4,5-d]pyrrolo[2,3-b]pyridin-2-yl)acetamide]: the “MDCK-MDR1 P^eapp(A-B) @ 5 μM” value in series [2] is listed as 1.2 10^−6 cm/sec.

For `N#CC[C@H]1CC[C@H](n2c(CC(=O)NCC3(O)CC3)nc3cnc4[nH]ccc4c32)CC1` [Ex. 12, 2-(1-((1r,4r)-4-(Cyanomethyl)cyclohexyl)-1,6-dihydroimidazo[4,5-d]pyrrolo[2,3-b]pyridin-2-yl)-N-((1-hydroxycyclopropyl)methyl)acetamide], the “MDCK-MDR1 P^eapp(A-B) @ 5 μM” value in series [2] was 0.6 10^−6 cm/sec.

On to `N#CC[C@H]1CC[C@H](n2c(CC(=O)NCC3CC3)nc3cnc4[nH]ccc4c32)CC1` [Ex. 3, 2-(1-((1r,4r)-4-(Cyanomethyl)cyclohexyl)-1,6-dihydroimidazo[4,5-d]pyrrolo[2,3-b]pyridin-2-yl)-N-(cyclopropylmethyl)acetamide], for which, in series [3], the “Plasma Concentration After i.c. Dosing, Time = 2 h, Mean” value was “^∧” and the “Plasma Concentration After i.c. Dosing, Time = 4 h, Mean” value is reported as “^∧”. Also, in series [2], the “MDCK-MDR1 P^eapp(A-B) @ 5 μM” value was 2.3 10^−6 cm/sec and 1.6 10^−6 cm/sec.

The record behind these values is patent US11066406B2, “Small molecule inhibitors of the JAK family of kinases” (Janssen Pharmaceutica NV, priority 2018, dated 2021).
